Assay results published in patent publication US20210379068A1, “METHODS AND MATERIALS FOR TREATING NEUROPSYCHIATRIC DISORDERS” (Mayo Foundation for Medical Education and Research, priority 2018, published 2021).
Entries after “also recorded” stand apart in the source; their conditions may differ.

Experiments:
Format in all cases: in vivo, mouse
brain cell populations = assay: CyTOF of brain cell populations, INK-ATTAC mice; details: AP vs vehicle
Procedure: (§1) INK-ATTAC mice were injected intraperitoneally (i.p.) with AP20187 (10 mg/kg) or vehicle for 3 days every 2 weeks for a total of 8-10 weeks.
This technique uniquely combines time-of-flight mass spectrometry with metal-labelling technology to enable detection of up to 40 protein targets per cell. A panel of antibodies based on surface markers, transcription factors, and cytokines (see Table 1) was designed for brain mass cytometry/cytometry by time of flight (CyTOF). Each antibody was tagged with a rare metal isotope and its function verified by mass cytometry according to the factory manual (Multi Metal labelling Kits, Fluidigm, CA). A CyTOF-2 mass cytometer (Fluidigm, South San Francisco, Calif.) was used for data acquisition. Acquired data were normalized based on normalization beads (Ce140, Eu151, Eu153, Ho165, and Lu175). A single brain hemisphere was dissociated into a single-cell suspension using brain tissue dissociation kits (Adult Brain Dissociation Kit, Miltenyi Biotec Inc., CA). Collected cells were incubated with metal-conjugated antibodies and, for testing intracellular proteins, including transcription factors and cytokines, fixation and permeabilization was conducted according to the manufacturer's instructions (Transcription Factor Staining Buffer Set, eBioscience, San Diego, Calif.). CyTOF data were analyzed by Cytobank (Santa Clara, Calif.).

INK-ATTAC;db/db mice = assay: Open field test, INK-ATTAC;db/db mice treated with AP20187; details: AP20187 vs vehicle, 2 months
Procedure: as §1
(§2) Locomotor activity and anxiety-like behavior of mice were assessed in sound-insulated, rectangular activity chambers (Med Associates Inc., St Albans, Vt., USA: W×L×D=27 cm×27 cm×20 cm with continually running fans, infrared lasers, and sensors). Beam breaks were assessed in 2-minute bins over 30 minutes, converted automatically to current mouse location and distance travelled (cm), and recorded on a computer with Med-PC software Version 4.0. Before the test, mice were acclimatized to the room for 1-1.5 hours before being introduced into the chambers. Mice were habituated for 5 minutes in the Open Field chamber (without recording) then placed for another 5 minutes in the home cage. Afterwards, mice were introduced back to the chambers and all mouse movements were recorded for 30 minutes. Anxiety was quantified by the distance mice travelled in the central 25% of the chamber (zone 1) as a function of the total distance mice travelled and by frequencies of entries into zone 1.

[1] = tested on: senescent cells in the hypothalamus; assay: TAF in hypothalamus close to the 3rd ventricle, INK-ATTAC mice; details: HFD INK-ATTAC mice, AP20187 vs vehicle
Procedure: as §1
Paraffin sections were deparaffinized with Histoclear and hydrated in an ethanol gradient followed by water and PBS. Antigen was retrieved by incubation in 0.01M citrate buffer (pH 6.0) at 95° C. for 10 minutes. Slides were placed in blocking buffer (1:60 normal goat serum [S-1000, Vector Laboratories] in 0.1% BSA/PBS) for 60 minutes at room temperature. […] Primary antibodies used (Table 2) were diluted in blocking buffer and applied overnight at 4° C. The next day, slides were washed 3 times with PBS and incubated for 30 minutes with secondary goat, anti-rabbit antibody (1:200; Vector Laboratories #BA-1000) for TAF staining or for 60 minutes with secondary Alexa antibody (Table 1). For TAF staining, Fluorescein-Avidin in PBS (1:500; #A-2011, Vector Lab) was applied to each sample for 20 minutes. Slides were washed 3 times in PBS, which was followed by FISH for TAF detection. Briefly, tissues were crosslinked with 4% paraformaldehyde for 20 minutes and dehydrated in graded ethanol. Sections were denatured for 10 minutes at 80° C. in hybridization buffer (70% formamide (Sigma), 25 mM MgCl2, 0.1 M Tris (pH 7.2), and 5% blocking reagent [Roche]) containing 2.5 μg ml^−1 Cy-3-labelled telomere-specific (CCCTAA) peptide nucleic acid probe (Panagene), followed by hybridization for 2 hour at room temperature in the dark. Slides were washed twice with 70% formamide in 2×SSC for 15 minutes, followed by washes in 2×SSC and PBS for 10 minutes. Sections were mounted in Vectashield, DAPI-containing mounting media and imaged.
A single, 3 μm-thick section per mouse was used for TAF staining, while for Dcx and Plin2 staining was performed on three 10 μm-thick sections 80 μm-apart. To quantify periventricular lipid accumulation 10-30 images in the periventricular region were taken using the DM5500 widefield fluorescence microscope from Leica with a 10× (for frequency of periventricular glia) or ×40 (for ALISE phenotype of ependymal cells) objective lens. Number of Plin2-positive cells (for frequency of ALISE-positive periventricular glia) or area of Plin2-positive vesicles (for ALISE phenotype of ependymal cells) was assessed using ImageJ software. For identity assessment of Plin2+ cells, 10 μm-thick sections were stained with combination of antibodies for Iba1 (secondary antibody conjugated with Alexa Fluor 488), Plin2 (secondary antibody conjugated with Alexa Fluor 594), and Vimentin (secondary antibody conjugated with Alexa Fluor 647) and quantified for frequency of Plin2+ astrocytes (Iba1−, Vim+) and microglia (Iba1+) in the periventricular region. A separate staining for Plin2 (secondary antibody conjugated with Alexa Fluor 594) and NeuN (secondary antibody conjugated with Alexa Fluor 647) was used to determine frequency of Plin2+ neurons in periventricular region. For TAF quantification in depth Z stacking was used (images were captured as stacks separated by 0.4 μm with ×63 objective) followed by ImageJ analysis.

wild-type C57Bl/6 mice = assay: Open field test, off-target effects of AP in wild-type C57Bl/6 mice on HFD; details: AP 10 mg/kg i.p. 3 days every 2 weeks for 8 weeks
Procedure: For off target effect measurements db/db and HDF mice (fed with HFD for 2 months prior treatment) were injected intraperitoneally (i.p.) with […] at 10 mg/kg or vehicle for 3 days every 2 weeks for 8 weeks.
as §2

CC[C@H](C(=O)N1CCCC[C@H]1C(=O)O[C@H](CCc1ccc(OC)c(OC)c1)c1cccc(OCC(=O)NCC(CNC(=O)COc2cccc([C@@H](CCc3ccc(OC)c(OC)c3)OC(=O)[C@@H]3CCCCN3C(=O)[C@@H](CC)c3cc(OC)c(OC)c(OC)c3)c2)CN(C)C)c1)c1cc(OC)c(OC)c(OC)c1 [AP]
ependymal cells (CD133+), CyTOF (brain cell populations; HFD INK-ATTAC mice): significantly increased; also recorded: replenish
immature neurons (Dcx+), CyTOF (brain cell populations; HFD INK-ATTAC mice): significantly increased; also recorded: partial recovery
neuronal precursor cells (Nestin+), CyTOF (brain cell populations; HFD INK-ATTAC mice): replenish; also recorded: significantly increased
frequency of endothelial cells (CD146+), CyTOF (brain cell populations; INK-ATTAC mice): did not alter
frequency of mature neurons (NeuN+), CyTOF (brain cell populations; INK-ATTAC mice): did not alter
frequency of microglia (CD11b+, CD45-), CyTOF (brain cell populations; INK-ATTAC mice): did not alter
frequency of oligodendrocytes (CNPase+ or OSP+), CyTOF (brain cell populations; INK-ATTAC mice): did not alter
anxiety-like behavior: distance travelled in the central area, open field (INK-ATTAC;db/db mice): significantly reduced anxiety-like behavior
number of entries into the central area, open field (INK-ATTAC;db/db mice): not significantly increased
total distance travelled (activity), 30 minute open field (INK-ATTAC;db/db mice): not affected; also recorded: did not alter
anxiety-like behavior: distance travelled in the central area, open field (INK-ATTAC;db/db mice; listed as AP20187): significant difference
% of NeuN-neg cells with 2 or more TAF, hypothalamus close to the 3rd ventricle [1]: significant decrease
% of NeuN-pos cells with 2 or more TAF, hypothalamus close to the 3rd ventricle [1]: significant decrease
mean number of TAF in NeuN-neg cells, hypothalamus close to the 3rd ventricle [1]: significantly reduced
mean number of TAF in NeuN-pos cells, hypothalamus close to the 3rd ventricle [1]: significantly reduced
% of NeuN-neg cells with 2 or more TAF, hypothalamus close to the 3rd ventricle ([1]; listed as AP20187): significantly reduced
% of NeuN-pos cells with 2 or more TAF, hypothalamus close to the 3rd ventricle ([1]; listed as AP20187): significantly reduced
anxiety-like behavior in open field (distance in the center), off-target control (wild-type C57Bl/6 mice): no difference
